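In this assay, cells in 96-well plates receive the compound at five concentrations for 48 hours. Endpoints are linearly interpolated between the surrounding concentrations. TGI marks complete inhibition of growth.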
Key:
Test in all cases: NCI tumour cell line growth inhibition, 48 h
[1] = system: LOX IMVI melanoma
[2] = system: DLD-1 colon
[3] = system: HOP-18 NSCLC
[4] = system: UACC-62 melanoma
[5] = system: HCC-2998 colon
[6] = system: IGROV1 ovarian
[7] = system: A498 renal
[8] = system: OVCAR-5 ovarian
[9] = system: HT29 colon
[10] = system: NCI-H522 lung
[11] = system: SK-OV-3 ovarian
[12] = system: TK-10 renal
[13] = system: HCT-15 colon
[14] = system: SF-295 CNS
[15] = system: ACHN renal
[16] = system: COLO 205 colon
[17] = system: SK-MEL-5 melanoma
[18] = system: K-562 leukemia
[19] = system: SF-539 CNS
[20] = system: DMS 273 small cell lung
[21] = system: CAKI-1 renal
[22] = system: DMS 114 small cell lung
[23] = system: RXF 393 renal
[24] = system: SN12C renal
[25] = system: HOP-92 NSCLC
[26] = system: U251 CNS
[27] = system: M14 melanoma
[28] = system: LXFL 529 NSCLC
[29] = system: M19-MEL melanoma
[30] = system: RPMI-8226 leukemia
[31] = system: KM12 colon
[32] = system: EKVX NSCLC
[33] = system: XF 498 CNS
[34] = system: SNB-78 CNS
[35] = system: SF-268 CNS
[36] = system: HL-60(TB) leukemia
[37] = system: NCI-H460 lung
[38] = system: NCI-H226 lung
[39] = system: CCRF-CEM leukemia
[40] = system: OVCAR-8 ovarian
[41] = system: A549 NSCLC
[42] = system: MALME-3M melanoma
[43] = system: HOP-62 NSCLC
[44] = system: SNB-75 CNS
[45] = system: MOLT-4 leukemia
[46] = system: KM20L2 colon
[47] = system: 786-0 renal
[48] = system: UACC-257 melanoma
[49] = system: UO-31 renal
[50] = system: SK-MEL-28 melanoma
[51] = system: SW-620 colon
[52] = system: OVCAR-4 ovarian
[53] = system: HCT-116 colon
[54] = system: SNB-19 CNS
[55] = system: NCI-H23 lung
[56] = system: SK-MEL-2 melanoma
[57] = system: RXF-631 renal
[58] = system: OVCAR-3 ovarian
[59] = system: HS 578T breast
[60] = system: DU-145 prostate
[61] = system: MCF7 breast
[62] = system: NCI/ADR-RES ovarian
[63] = system: PC-3 prostate
[64] = system: T-47D breast
[65] = system: MDA-MB-231 breast
[66] = system: MDA-MB-435
[67] = system: SR leukemia
[68] = system: BT-549 breast
[69] = system: MDA-N

## CSC(SC)=C1Sc2cccc(Cl)c2S1
[1]
  TGI: > 100 µM
[2]
  TGI: > 100 µM
[3]
  TGI: > 100 µM
[4]
  TGI: > 100 µM
[5]
  TGI: 44.9 µM
[6]
  TGI: > 100 µM
[7]
  TGI: > 100 µM
[8]
  TGI: > 100 µM
[9]
  TGI: > 100 µM
[10]
  TGI: 63.8 µM
[11]
  TGI: > 100 µM
[12]
  TGI: > 100 µM
[13]
  TGI: > 100 µM
[14]
  TGI: > 100 µM
[15]
  TGI: > 100 µM
[16]
  TGI: 41.3 µM
[17]
  TGI: > 100 µM
[18]
  TGI: > 100 µM
[19]
  TGI: > 100 µM
[20]
  TGI: > 100 µM
[21]
  TGI: > 100 µM
[22]
  TGI: 79.8 µM
[23]
  TGI: 88.1 µM
[24]
  TGI: > 100 µM
[25]
  TGI: 65.8 µM
[26]
  TGI: > 100 µM
[27]
  TGI: > 100 µM
[28]
  TGI: > 100 µM
[29]
  TGI: > 100 µM
[30]
  TGI: > 100 µM
[31]
  TGI: > 100 µM
[32]
  TGI: > 100 µM
[33]
  TGI: 76.9 µM
[34]
  TGI: > 100 µM
[35]
  TGI: > 100 µM
[36]
  TGI: 45.9 µM
[37]
  TGI: > 100 µM
[38]
  TGI: > 100 µM
[39]
  TGI: > 100 µM
[40]
  TGI: > 100 µM
[41]
  TGI: > 100 µM
[42]
  TGI: > 100 µM
[43]
  TGI: > 100 µM
[44]
  TGI: > 100 µM
[45]
  TGI: > 100 µM
[46]
  TGI: > 100 µM
[47]
  TGI: > 100 µM
[48]
  TGI: > 100 µM
[49]
  TGI: > 100 µM
[50]
  TGI: > 100 µM
[51]
  TGI: > 100 µM
[52]
  TGI: > 100 µM
[53]
  TGI: > 100 µM
[54]
  TGI: > 100 µM
[55]
  TGI: > 100 µM
[56]
  TGI: 48.8 µM

## COC1=C(OC)C(=O)c2cc(C)c(=O)c(C)cc2C1=O
[1]
  TGI: > 39 µM
[57]
  TGI: > 100 µM
[2]
  TGI: 41.4 µM
[3]
  TGI: 29.9 µM
[4]
  TGI: 27.7 µM
[58]
  TGI: 24 µM
[5]
  TGI: 55.1 µM
[6]
  TGI: 33.2 µM
[7]
  TGI: 40.7 µM
[8]
  TGI: 47.6 µM
[9]
  TGI: 50.5 µM
[10]
  TGI: 32.2 µM
[11]
  TGI: 41.8 µM
[59]
  TGI: 63.8 µM
[12]
  TGI: 34 µM
[13]
  TGI: 45.7 µM
[14]
  TGI: 48.5 µM
[15]
  TGI: 31.1 µM
[16]
  TGI: 34.7 µM
[17]
  TGI: 29.3 µM
[60]
  TGI: 32.6 µM
[18]
  TGI: > 24 µM
[19]
  TGI: 33.1 µM
[20]
  TGI: 45.5 µM
[21]
  TGI: 31.7 µM
[61]
  TGI: 36.4 µM
[22]
  TGI: 12.7 µM
[23]
  TGI: 29.4 µM
[24]
  TGI: 7.08 µM
[25]
  TGI: 30.4 µM
[26]
  TGI: 31 µM
[27]
  TGI: 30.8 µM
[28]
  TGI: 13.9 µM
[29]
  TGI: 11.5 µM
[62]
  TGI: 39.4 µM
[63]
  TGI: 49.6 µM
[30]
  TGI: 40.7 µM
[64]
  TGI: > 55.4 µM
[31]
  TGI: 36.6 µM
[65]
  TGI: 20.7 µM
[66]
  TGI: 3.49 µM
[32]
  TGI: 31.5 µM
[67]
  TGI: > 22.6 µM
[34]
  TGI: 45.5 µM
[35]
  TGI: 37.1 µM
[36]
  TGI: 8.9 µM
[37]
  TGI: 48.5 µM
[38]
  TGI: 39.3 µM
[39]
  TGI: 7.06 µM
[40]
  TGI: 35.7 µM
[41]
  TGI: 38 µM
[42]
  TGI: 30.8 µM
[43]
  TGI: 36.6 µM
[68]
  TGI: 28.5 µM
[44]
  TGI: 33 µM
[45]
  TGI: 15.6 µM
[46]
  TGI: 40 µM
[47]
  TGI: 24.5 µM
[69]
  TGI: 6.84 µM
[48]
  TGI: 25.6 µM
[49]
  TGI: 27.9 µM
[50]
  TGI: 31 µM
[51]
  TGI: 20.7 µM
[52]
  TGI: 7.64 µM
[53]
  TGI: 28.9 µM
[54]
  TGI: 37.6 µM
[55]
  TGI: 34.2 µM
[56]
  TGI: 36.8 µM

## Cc1cc(Br)ccc1N=NC1C(=O)ON=C1c1ccccc1 (centres undefined)
[1]
  TGI: > 100 µM
[57]
  TGI: > 100 µM
[2]
  TGI: > 100 µM
[3]
  TGI: > 100 µM
[4]
  TGI: > 100 µM
[58]
  TGI: > 100 µM
[5]
  TGI: 76.4 µM
[6]
  TGI: > 100 µM
[7]
  TGI: > 100 µM
[8]
  TGI: > 100 µM
[9]
  TGI: > 100 µM
[10]
  TGI: > 100 µM
[11]
  TGI: > 100 µM
[12]
  TGI: > 100 µM
[14]
  TGI: > 100 µM
[15]
  TGI: > 100 µM
[16]
  TGI: 29.6 µM
[17]
  TGI: > 100 µM
[18]
  TGI: > 100 µM
[19]
  TGI: > 100 µM
[20]
  TGI: > 100 µM
[22]
  TGI: > 100 µM
[23]
  TGI: > 100 µM
[24]
  TGI: > 100 µM
[25]
  TGI: > 100 µM
[26]
  TGI: > 100 µM
[27]
  TGI: > 100 µM
[28]
  TGI: > 100 µM
[29]
  TGI: > 100 µM
[30]
  TGI: > 100 µM
[31]
  TGI: > 100 µM
[32]
  TGI: > 100 µM
[67]
  TGI: > 100 µM
[34]
  TGI: > 100 µM
[35]
  TGI: > 100 µM
[36]
  TGI: > 100 µM
[37]
  TGI: > 100 µM
[38]
  TGI: > 100 µM
[40]
  TGI: > 100 µM
[41]
  TGI: > 100 µM
[42]
  TGI: > 100 µM
[43]
  TGI: > 100 µM
[44]
  TGI: > 100 µM
[45]
  TGI: > 100 µM
[46]
  TGI: > 100 µM
[47]
  TGI: > 100 µM
[48]
  TGI: > 100 µM
[49]
  TGI: > 100 µM
[50]
  TGI: > 100 µM
[51]
  TGI: > 100 µM
[52]
  TGI: > 100 µM
[53]
  TGI: > 100 µM
[54]
  TGI: > 100 µM
[55]
  TGI: > 100 µM
[56]
  TGI: > 100 µM

From PubChem BioAssay (NCI)
